# Reference: US20080064681A1, “Therapeutic agent for treating glaucoma” (priority 2006, published 2008)
# Counter-ions that a name gives are not always drawn.
# Columns and labels:
# [1] = system: intraocular pressure in rabbits; assay: Intraocular pressure measurement after instillation of eye drops in rabbits; assay type: in vivo, rabbit (NZW, male); conditions: for time after instillation of maximum intraocular-pressure-reducing effect: 1% eye drops in phosphate buffer pH 7.0, 0.05 ml into right eye; for time after instillation of maximum intraocular-pressure-reducing effect / period of intraocular-pressure-reducing effect longer than that for the compound M / inhibition in vivo at 1 % / intraocular-pressure-reducing effect relative to that of the compound M: rabbit; for period of intraocular-pressure-reducing effect longer than that for the compound M / inhibition in vivo at 1 %: 1% eye drops; for inhibition in vivo at 1 %: Oryctolagus cuniculus, topical, 2 h, 120 minutes after instillation, read-out: maximum intraocular-pressure-reducing effect, intraocular pressure lower than that of the control eye; for intraocular-pressure-reducing effect relative to that of the compound M: after 120 minutes from the instillation
# Method: Eye drops were prepared by dissolving each compound (1.0 g) in a phosphate buffer solution which was prepared by dissolving 0.8 g of sodium dihydrogen phosphate and 0.5 g of sodium chloride in purified water such that the final weight was 100 g. The pH was adjusted to 7.0 with sodium hydroxide.
# As a control, a phosphate buffer solution (pH 7.0) in which 1.0 g of the compound M was not dissolved was used.
# Each rabbit (NZW, male, 2.5 to 3.0 kg) was secured in a holder. One of the preparations (0.05 ml) was instilled into the right eye, and the phosphate buffer as control (0.05 ml) was instilled into the left eye. The intraocular pressures were measured serially using a TonoLab handheld mobile tonometer manufactured by Tiolat. The ratios to the control values were calculated and plotted with time (refer to figures).
# Eye drops were prepared by dissolving the compound (S)-hexahydro-1-(4-fluoroisoquinoline-5-sulfonyl)-4-glycyl-2-methyl-1H-1,4-diazepine dihydrochloride (1.0 g) in 1.0 g of dimethyl sulfoxide and adding the resulting solution to a boric acid solution prepared by dissolving 2.0 g of boric acid in purified water such that the final weight was 100 g. The pH was adjusted to 7.0 with sodium hydroxide.
# The eye drops were administered to a rabbit as in Example 1, and the intraocular pressures were measured.
# [2] = target: T1, recombinant ROCK II (1-602) (Homo sapiens, UniProt O75116); assay: Rho-kinase assay (phosphate incorporation, [γ-32P]ATP, RSK peptide); assay type: biochemical; conditions: 10 nM ROCK II, 10 μM ATP, 30° C., 10 minutes
# T1 construct: made in house; host or cells: Sf9 insect cells
# Method: Rho-kinase assays were performed using the compounds in various concentrations and the 50% inhibitory concentrations (hereinafter referred to as the “IC50 value”) of the compounds for Rho-kinase were calculated. In the Rho-kinase assay, phosphorylation reaction was performed using an activated form of recombinant ROCK II (1-602) obtained by expressing human ROCK II cDNA in Sf9 cells […], and the phosphate incorporation activity was defined as the Rho-kinase activity. Namely, the compounds were each added to a reaction solution containing 50 mM Tris-HCL (ph 7.4), […], 2 mM EDTA, 2 mM EGTA, 0.1% tween 20, 50 μM RSK peptide, 10 μM [γ-^32P]ATP, and 10 nM ROCK II, and the reaction was allowed to proceed at 30° C. for 10 minutes. The reaction mixture was spotted on phosphocellulose paper, and the reaction was stopped by dipping the phosphocellulose paper into a phosphoric acid solution. The phosphocellulose paper was washed with the phosphoric acid solution, and then radioactivity was measured with a liquid scintillation counter.
# An Rho-kinase assay was performed, and the 50% inhibitory concentration (hereinafter referred to as the “IC50 value”) was calculated. The IC50 value of the reference compound (S)-hexahydro-1-(4-fluoroisoquinoline-5-sulfonyl)-4-glycyl-2-methyl-1H-1,4-diazepine dihydrochloride for Rho-kinase is shown in Table 2.
# [3] = system: intraocular pressure in rabbits; conditions: literature reports; cited from earlier work
# T1 sequence (O75116 1-602): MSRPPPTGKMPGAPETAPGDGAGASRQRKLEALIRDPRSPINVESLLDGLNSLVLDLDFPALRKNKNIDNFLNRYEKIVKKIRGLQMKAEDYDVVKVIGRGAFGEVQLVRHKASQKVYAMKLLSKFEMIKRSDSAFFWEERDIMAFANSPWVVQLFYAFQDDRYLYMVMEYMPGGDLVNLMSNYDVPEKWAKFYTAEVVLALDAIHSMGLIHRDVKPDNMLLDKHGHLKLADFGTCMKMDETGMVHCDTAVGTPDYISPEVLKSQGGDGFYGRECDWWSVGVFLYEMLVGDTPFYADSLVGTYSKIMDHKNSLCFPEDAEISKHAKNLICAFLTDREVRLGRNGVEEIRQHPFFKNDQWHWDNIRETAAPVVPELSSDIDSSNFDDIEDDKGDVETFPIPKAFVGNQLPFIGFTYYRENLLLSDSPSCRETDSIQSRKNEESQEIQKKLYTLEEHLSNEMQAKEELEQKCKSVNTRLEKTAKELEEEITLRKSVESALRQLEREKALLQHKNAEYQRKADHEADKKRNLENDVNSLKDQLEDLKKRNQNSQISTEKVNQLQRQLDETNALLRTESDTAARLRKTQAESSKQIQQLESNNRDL
Compound,time after instillation of maximum intraocular-pressure-reducing effect [1],period of intraocular-pressure-reducing effect longer than that for the compound M [1],inhibition in vivo at 1 % [1],intraocular-pressure-reducing effect relative to that of the compound M [1],IC50 [2],effect on intraocular pressure in rabbits (reported) [3],"intraocular-pressure-reducing effect ([1]; 1% eye drops in dimethyl sulfoxide / boric acid solution pH 7.0, rabbit)"
"C[C@H]1CNCCN1S(=O)(=O)c1cccc2cncc(Br)c12 [Compound B6, 2-(S)-1-(4-bromoisoquinoline-5-sulfonyl)-2-methylpiperazine dihydrochloride]",120 min,about 2 hours,26%,substantially the same as that of the compound M,634 nM,–,–
"C[C@H]1CNCCCN1S(=O)(=O)c1cccc2cncc(Br)c12 [Compound B7, (S)-hexahydro-1-(4-bromoisoquinoline-5-sulfonyl)-2-methyl-1H-1,4-diazepine dihydrochloride]",120 min,about 5 hours,56%,2.0 times,28.4 nM,–,–
"C[C@H]1CNCCCCN1S(=O)(=O)c1cccc2cncc(Br)c12 [Compound B8, (S)-octahydro-1-(4-bromoisoquinoline-5-sulfonyl)-2-methyl-1,4-diazocine dihydrochloride]",120 min,about 1 hours,47%,1.7 times,48.5 nM,–,–
"C[C@H]1CNCCCN1S(=O)(=O)c1cccc2cncc(Cl)c12 [Compound C7, (S)-hexahydro-1-(4-chloroisoquinoline-5-sulfonyl)-2-methyl-1H-1,4-diazepine dihydrochloride]",120 min,about 3 hours,54%,1.9 times,25.8 nM,–,–
"C[C@H]1CNCCCCN1S(=O)(=O)c1cccc2cncc(Cl)c12 [Compound C8, (S)-octahydro-1-(4-chloroisoquinoline-5-sulfonyl)-2-methyl-1,4-diazocine dihydrochloride]",120 min,substantially the same as that for the compound M,35%,1.3 times,21.1 nM,–,–
"C[C@H]1CNCCCN1S(=O)(=O)c1cccc2cncc(F)c12 [Compound F7, (S)-hexahydro-1-(4-fluoroisoquinoline-5-sulfonyl)-2-methyl-1H-1,4-diazepine dihydrochloride]",120 min,about 3 hours,45%,1.9 times,85 nM,–,–
"C[C@H]1CNCCCCN1S(=O)(=O)c1cccc2cncc(F)c12 [Compound F8, (S)-octahydro-1-(4-fluoroisoquinoline-5-sulfonyl)-2-methyl-1,4-diazocine dihydrochloride]",120 min,about 1 hours,45%,1.6 times,39.1 nM,–,–
C[C@@H](N)[C@H]1CC[C@H](C(=O)Nc2ccncc2)CC1 [Compound Y-27632],–,–,–,–,–,reduce intraocular pressure in rabbits,–
O=S(=O)(c1cccc2cnccc12)N1CCCNCC1 [HA-1077],–,–,–,–,–,reduce intraocular pressure in rabbits,–
"C#Cc1cncc2cccc(S(=O)(=O)N3CCCNC[C@@H]3C)c12.Cl.Cl [M, (S)-hexahydro-1-(4-ethynylisoquinoline-5-sulfonyl)-2-methyl-1 H-1,4-diazepine dihydrochloride, reference compound]",120 min,–,28%,–,19.5 nM,–,–
"C[C@H]1CN(C(=O)CN)CCCN1S(=O)(=O)c1cccc2cncc(F)c12.Cl.Cl [Reference Compound, (S)-hexahydro-1-(4-fluoroisoquinoline-5-sulfonyl)-4-glycyl-2-methyl-1H-1,4-diazepine dihydrochloride, reference compound]",–,–,–,–,54 nM,–,a statistically significant intraocular-pressure-reducing effect was not observed
